Legend:
EGFR = biological target: T1, EGFR (Homo sapiens, UniProt P00533); experiment: Selectivity: EGFR phosphorylation in A431 cells; assay type: cell-based; details: in the presence or absence of EGF (2.5 ng/ml)
T1 construct: endogenous in cells; host or cells: A431
Procedure: Selectivity vs. EGFR, PDGFR and IGFR
In order to determine the selectivity of these compounds for the insulin receptor, their effects on other receptors that share a similar mechanism of activation with the insulin receptor were examined. Human epidermoid carcinoma (A431) cells were plated at a density of 2×10^5 cells per well in 6-well dishes in DMEM with 10% FBS and L-Glutamine and allowed to grow to 75% confluence. Prior to the experiment, the cells were serum-starved overnight with DMEM with 0.1% BSA. The following morning, the cells were washed with PBS and the medium was replaced with 150 mM NaCl, 1.7 mM KCl, 0.9 mM CaCl2, K2HPO4 (pH 7.4), to which was added either the experimental compound or its vehicle (DMSO). Epidermal Growth Factor (EGF) or its vehicle (0.01% BSA) was diluted in the assay buffer (containing test compound or vehicle respectively) to a final concentration of 2.5 ng/ml. After incubating for 15 min, the cells were washed with cold PBS twice and lysed in 50 mM Tris.HCl pH 7.4, 150 mM NaCl, 0.25% sodium deoxycholate, 1% NP40, 1 mM EGTA, 1 mM PMSF, 1 mM Na3VO4, 1 mM NaF, 1 ug/ml each of Aprotinin, Leupeptin and Pepstatin. The cell lysates were clarified by centrifugation at 12000 rpm, and the supernatants were estimated for protein concentration. […]

db/db mouse = experiment: Blood glucose level determination in db/db mouse; assay type: in vivo; details: compound intraperitoneally, with or without 0.01U insulin s.c.; 0-4 hr (FIGS. 8 and 9)
Procedure: Blood Glucose Level Determination in db/db Mouse.
An accepted model for Type 2 diabetes which has been used to establish the potential anti-diabetic activity of compounds is the db/db mouse. Seven to 9 week old male db/db mice (Jackson Laboratories, Bar Harbor, Me.), were used to the study of the effects of compounds on blood glucose levels. Animals were kept in a 12 h/12 h light/dark cycle, and experiments were initiated immediately after the dark period (7:00 a.m.). Food was removed at this time and returned after the final blood glucose measurement was taken.
Insulin (0.5U/ml, Humulin R, Catalog HI-201, Lilly, Indianapolis, Ind.) was prepared by diluting 100U/mL stock insulin 1:200 with PBS (phosphate buffered saline, Gibco, BRL). Compounds were prepared in a vehicle of either PBS or 20% DMSO in PBS.
Five to 10 animals (average weight 40–50 g) were used in each treatment condition. The animals were injected subcutaneously with either 0.01U insulin in PBS or PBS alone, followed by 0.1 mL of compound or its vehicle delivered intraperitoneally. Blood samples were taken 0 min, 15 min, 30 min, 1 hr, 2 hr and 4 hr after the administration of the drug or vehicle by tail bleeding. Glucose measurements were made with a Glucometer and Glucose strips (Bayer). […]

STZ/HFD rat = experiment: Blood glucose determination in the STZ/HFD rat model of Type 2 diabetes; assay type: in vivo; details: STZ/HFD rat
Text: Blood Glucose Determination in the STZ/HFD Rat Model of Type 2 Diabetes
Representative compounds were also profiled in genetically normal rats given a high-fat diet followed by treatment with a low dose of streptozotocin (STZ/HFD). This treatment regimen recreates both the insulin resistance and the hyperglycemia seen in human Type 2 diabetes. Male CD rats (Jackson Labs, Bar Harbor Me.) were maintained according to NIH guidelines, housed two per cage, and fed either standard lab chow (Tekland Laboratory Diets, James Grain, San Jose, Calif.) or the same chow supplemented with chocolate bars, cookies, and potato chips such that their final diet contained 30% fat by weight (high-fat diet; HFD). After two weeks of this diet, the animals were given an injection of freshly-prepared streptozotocin (35 mg/kg, i.p.) and continued on the HFD. Animals that achieved glucose levels of 190 to 380 mg/dl were used in this study. At the end of the 12-hour light/dark cycle, and just prior to the experiment, the animals were moved to new cages with no food available until 4 hours after treatment. The compound or vehicle (PBS) was given p.o. by gavage, and blood was sampled by approved IACUC protocol using tail cap method. Glucose was determined using the Glucometer Elite (Bayer, Elkhart, Ind.).
The reduction was maximal (20%) 4 hours after the administration of Compound 15.

STZ/HFD rats = experiment: Multi-dosing in STZ/HFD rats; assay type: in vivo, rat; details: 30 mg/kg oral daily, 3 days (FIG. 14)
Procedure: Multi-Dosing in STZ/HFD Rats
STZ/HFD rats were prepared as in example 19. Compound 15 or an equivalent amount of the vehicle (PBS) was administered daily by the oral route at a dose of 30 mg/kg. Blood samples were taken by an IACUC-approved protocol (tail cap method) immediately before each dose and 4 and 6 (day one only) hours later. Blood glucose levels were measured using a Glucometer Elite (Bayer, Elkhart, Ind.). The blood glucose levels of the vehicle-treated group fell over the course of the experiment as the animals recovered from the low dose of STZ (FIG. 14).

T1 sequence (P00533 25-1210): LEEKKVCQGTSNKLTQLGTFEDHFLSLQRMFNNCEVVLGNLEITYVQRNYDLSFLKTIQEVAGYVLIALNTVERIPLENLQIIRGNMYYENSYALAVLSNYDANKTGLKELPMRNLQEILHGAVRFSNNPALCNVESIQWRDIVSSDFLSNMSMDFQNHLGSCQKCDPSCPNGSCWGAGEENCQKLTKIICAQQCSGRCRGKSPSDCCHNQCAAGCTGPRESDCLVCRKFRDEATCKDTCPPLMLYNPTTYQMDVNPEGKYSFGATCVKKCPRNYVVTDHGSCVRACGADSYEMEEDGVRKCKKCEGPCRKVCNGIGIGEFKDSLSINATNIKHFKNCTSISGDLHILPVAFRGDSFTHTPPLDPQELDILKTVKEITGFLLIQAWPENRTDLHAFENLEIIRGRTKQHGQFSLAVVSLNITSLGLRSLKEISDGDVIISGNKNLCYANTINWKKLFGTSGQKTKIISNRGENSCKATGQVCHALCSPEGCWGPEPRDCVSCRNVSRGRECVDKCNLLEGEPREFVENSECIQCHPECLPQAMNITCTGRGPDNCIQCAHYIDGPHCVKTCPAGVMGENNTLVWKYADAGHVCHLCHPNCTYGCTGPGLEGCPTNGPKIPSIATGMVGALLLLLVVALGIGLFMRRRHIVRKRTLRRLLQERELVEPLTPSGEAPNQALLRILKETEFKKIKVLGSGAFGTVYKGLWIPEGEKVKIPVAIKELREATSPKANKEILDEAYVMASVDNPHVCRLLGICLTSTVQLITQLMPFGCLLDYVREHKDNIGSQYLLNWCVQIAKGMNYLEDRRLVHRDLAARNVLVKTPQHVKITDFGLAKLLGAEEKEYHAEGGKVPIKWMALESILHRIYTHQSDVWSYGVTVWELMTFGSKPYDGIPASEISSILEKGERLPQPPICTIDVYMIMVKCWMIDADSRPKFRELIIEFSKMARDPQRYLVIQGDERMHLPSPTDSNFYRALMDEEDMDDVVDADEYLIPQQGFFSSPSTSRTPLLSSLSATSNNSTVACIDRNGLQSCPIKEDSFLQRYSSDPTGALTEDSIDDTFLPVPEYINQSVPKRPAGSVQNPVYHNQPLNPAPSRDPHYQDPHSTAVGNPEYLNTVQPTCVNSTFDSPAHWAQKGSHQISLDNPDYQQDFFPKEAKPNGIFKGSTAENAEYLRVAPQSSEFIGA

## O=C(Nc1ccc2c(O)cc(S(=O)(=O)Nc3cccc(S(=O)(=O)O)c3)cc2c1)Nc1ccc2c(O)cc(S(=O)(=O)Nc3cccc(S(=O)(=O)O)c3)cc2c1 [Compound 15, 3-{[(4-hydroxy-7-{[N-(5-hydroxy-7-{[(3-sulfophenyl)amino]sulfonyl}(2-naphthyl))carbamoyl]amino}-2-naphthyl)sulfonyl]amino}benzenesulfonic acid]
EGFR
  phosphorylation of EGFR: did not increase the phosphorylation of EGFR
db/db mouse
  blood glucose levels in db/db mice: acts in an insulin-independent manner to lower blood glucose levels
STZ/HFD rat; p.o. by gavage (FIG. 11)
  maximal reduction in blood glucose levels: 20%
  time of maximal reduction in blood glucose after administration: 4 h
STZ/HFD rat; p.o. by gavage, 6 hour experiment (FIG. 11)
  onset and duration of reduction in blood glucose levels: beginning one hour after administration and persisting for the entire 6 hours of the experiment
STZ/HFD rats
  blood glucose levels versus vehicle-treated group: lowered blood glucose levels below those of the vehicle-treated group by 6 hours after administration

Reference: patent US7071231B2, “Naphthalene ureas as glucose uptake enhancers” (Telik, Inc., priority 1999, dated 2006)
